Values of other authors as cited in patent US9145400B2, “Process for the preparation of form III of vilazodone hydrochloride” (Sandoz AG, priority 2013, dated 2015).
Read-outs that look alike come from different tables or passages of the source.

Experiments:
[1] = at room temperature
[2] = DVS, humidity of about 90%; takes up water only in minimal amounts; per WO 02/102794

For `Cl.N#Cc1ccc2[nH]cc(CCCCN3CCN(c4ccc5oc(C(N)=O)cc5c4)CC3)c2c1` [form III of Vilazodone hydrochloride, 5-(4-[4-(5-cyano-1H-indol-3-yl)butyl]piperazin-1-yl)benzofuran-2-carboxamide hydrochloride], the “thermodynamic stability among polymorphs” value ([1]; per WO 02/102794 page 20, lines 23-26 and FIG. 27, listed as Vilazodone hydrochloride crystalline form III) is listed as “thermodynamically most stable form”, the “thermodynamic stability among polymorphs” value ([1]; per WO 02/102794 page 20, lines 23-26 and FIG. 27, hydrochloride) is listed as “most thermodynamically stable polymorph” and the “hygroscopicity (water uptake)” value [2] is listed as “non-hygroscopic”.
